US20250345391A1, “COMPOSITIONS AND METHODS FOR THE TREATMENT OF SEPSIS” (Children's Hospital Medical Center, priority 2022, published 2025)

What was measured:
STAT3 = test: Western blot of STAT3 and phosphorylated forms in thoracic aorta after CLP; assay type: in vivo, Male C57BL/6 mice; settings: 6 h after CLP
Description: The investigation conformed to the National Institutes of Health Guide for the Care and Use of Laboratory Animals (Eighth Edition, 2011) and was approved by the Institutional Animal Care and Use Committee of the Cincinnati Children's Hospital Medical Center. Male C57BL/6 mice were obtained from Charles River Laboratories International, Inc. (Wilmington, MA). Mice were used at 3-5 months of age to mimic the equivalent for human ranges from 20-25 years (29). Male mice only were chosen for the experimentation to avoid interference from female hormonal fluctuations in sepsis responses during the estrous cycle. Mice were housed in pathogen-free conditions under a 10-h light/14-h dark cycle with free access to food and water. Mice were anesthetized with 2.0% isoflurane in 50% oxygen and polymicrobial sepsis was induced by cecal ligation and puncture (CLP) (30). After a midline laparotomy, the cecum was exteriorized, ligated and punctured twice with a 23-G needle. The cecum was then returned into the peritoneal cavity and the abdominal incision was closed. After the procedure, mice were randomly assigned to three treatment groups: a vehicle-treated group received distilled water (200 μl/mouse) intraperitoneally (i.p.); a 100 μg colivelin-treated group received the colivelin at 100 μg/kg i.p., and a 200 μg colivelin-treated group received the colivelin at 200 μg/kg i.p. at 1 h after CLP. The intraperitoneal injection was chosen to allow for a rapid uptake and bioavailability of the peptide. All groups of mice also received fluid resuscitation (35 ml/kg normal saline solution subcutaneously) immediately after, at 3 h and 12 h after the CLP procedure. To minimize pain at the surgical incision site, lidocaine hydrochloride (1%, 4 mg/kg total dose) was applied locally immediately after the procedure. […] Mice were then sacrificed at 0, 6 and 18 h after CLP. Blood, lungs, kidneys, liver, and thoracic aortas were collected for biochemical assays.
Subcellular fractionation was performed using a centrifugation model. Tissue samples of lung and thoracic aortas were homogenized in a buffer (50 mg tissue/100 μL) containing 0.32 M sucrose, 10 mM Tris-HCl (pH 7.4), 1 mM EGTA, 2 mM EDTA, 5 mM NaN3, 10 mM β-mercaptoethanol, 2 μM leupeptin, 0.15 μM pepstatin A, 0.2 mM phenylmethanesulfonyl fluoride, 50 mM NaF, 1 mM sodium orthovanadate and 0.4 nM microcystin. Samples were centrifuged at 1000×g for 10 min at 4° C. and the supernatants collected as cytosol extracts, which also contain membrane and mitochondria. The pellets were then solubilized in Triton buffer (1% Triton X-100, 250 mM NaCl, 50 mM Tris HCl at pH 7.5, 3 mM EGTA, 3 mM EDTA, 1 mM phenylme-thanesulfonyl fluoride, 0.1 mM sodium orthovanadate, 10% glycerol, 2 mM p-nitrophenyl phosphate, 0.5% NP-40 and 46 μM aprotinin). The lysates were rocked for 1 h and subsequently centrifuged at 15,000×g for 30 min at 4° C. and the supernatant collected as nuclear extracts. The Bradford protein assay was then used for quantitative determination of total proteins.
Cytosol content of total AMPKα1/α2 and its phosphorylated form pAMPKα1/α2 (Santa Cruz Biotechnology, Dallas, TX, USA), cytosol and nuclear content of STAT3 and its phosphorylated forms pSTAT3(Tyr705) and pSTAT3(Ser727) (Cell Signaling Technology, Danvers, MA, USA) were determined by immunoblot analyses; β-actin was concomitantly probed with mouse anti-β-actin (Santa Cruz Biotechnology) as a loading control for both cytosol and nuclear proteins. Extracts were heated at 70° C. in equal volumes of 4× Protein Sample Loading Buffer. Twenty-five μg of proteins were loaded per lane on a 10% Bis-Tris gel. Proteins were separated electrophoretically and transferred to nitro-cellulose membranes. The immunoreaction was detected by near-infrared fluorescence. Membranes were blocked with Odyssey blocking buffer (LI-COR Biotechnology, Lincoln, NE, USA) and incubated with primary antibodies. […]

[1] = system: Myeloperoxidase (MPO) activity in lung, kidneys and liver tissue; test: Myeloperoxidase activity (neutrophil infiltration) in organs after CLP sepsis; assay type: in vivo, Male C57BL/6 mice; settings: 6 h after CLP; colivelin 100 or 200 μg/kg i.p. at 1 h after CLP; vs vehicle; dose-independent
Description: The investigation conformed to the National Institutes of Health Guide for the Care and Use of Laboratory Animals (Eighth Edition, 2011) and was approved by the Institutional Animal Care and Use Committee of the Cincinnati Children's Hospital Medical Center. Male C57BL/6 mice were obtained from Charles River Laboratories International, Inc. (Wilmington, MA). Mice were used at 3-5 months of age to mimic the equivalent for human ranges from 20-25 years (29). Male mice only were chosen for the experimentation to avoid interference from female hormonal fluctuations in sepsis responses during the estrous cycle. Mice were housed in pathogen-free conditions under a 10-h light/14-h dark cycle with free access to food and water. Mice were anesthetized with 2.0% isoflurane in 50% oxygen and polymicrobial sepsis was induced by cecal ligation and puncture (CLP) (30). After a midline laparotomy, the cecum was exteriorized, ligated and punctured twice with a 23-G needle. The cecum was then returned into the peritoneal cavity and the abdominal incision was closed. After the procedure, mice were randomly assigned to three treatment groups: a vehicle-treated group received distilled water (200 μl/mouse) intraperitoneally (i.p.); a 100 μg colivelin-treated group received the colivelin at 100 μg/kg i.p., and a 200 μg colivelin-treated group received the colivelin at 200 μg/kg i.p. at 1 h after CLP. The intraperitoneal injection was chosen to allow for a rapid uptake and bioavailability of the peptide. All groups of mice also received fluid resuscitation (35 ml/kg normal saline solution subcutaneously) immediately after, at 3 h and 12 h after the CLP procedure. […] Myeloperoxidase (MPO) activity was measured as an indicator of neutrophil infiltration in lung, kidneys and liver tissue. […] The rate of change in absorbance was measured by spectrophotometry at 650 nm. MPO activity was defined as the quantity of enzyme degrading 1 μmol of hydrogen peroxide/min at 37° C. and expressed in units per 100 mg weight of tissue.

[2] = colivelin i.p. at 1 h after CLP, vs vehicle

Substance: Colivelin (SALLRSIPAPAGASRLLLLTGEIDLP)
- Nuclear expression of pSTAT3(Tyr705), thoracic aorta (STAT3; colivelin at the highest dose): inhibited
- Cytosolic expression of pSTAT3(Ser727), thoracic aorta (STAT3; [2]): significantly reduced
- Cytosolic expression of pSTAT3(Tyr705), thoracic aorta (STAT3; [2]): significantly reduced
- Levels of total STAT3 in the cytosol, thoracic aorta (STAT3; [2]): restored
- Levels of total STAT3 in the nucleus, thoracic aorta (STAT3; [2]): remained unchanged
- Nuclear expression of pSTAT3(Ser727), thoracic aorta (STAT3; [2]): did not affect
- MPO activity in kidneys [1]: significantly decreased
- MPO activity in liver [1]: significantly decreased
- MPO activity in lungs [1]: significantly decreased
